{"source": "patent US20060246133A1", "about": "“Controlled release pharmaceutical compositions of liothyronine and methods of making and using the same” (priority 2005, published 2006)", "origin": "cited, not measured here", "settings": "when administered in an immediate release form", "data": [{"smiles": "N[C@@H](Cc1cc(I)c(Oc2ccc(O)c(I)c2)c(I)c1)C(=O)O", "note": "[liothyronine]", "values": [{"measurement": "half-life", "value": "about 10 hours"}]}]}
